Assay [1] has as its system Influenza A (H1N1) 2009. The note with it: in vivo.
For assay [2], the system named is Influenza A (H1N1) 2009. The settings on record: in vivo. This is another data set of the same source.

SMILES strings stand for the structures. “And” between values parts separate entries of the source, which are not always exact repeats. Identical values can stand only once.

Take `CCOC(=O)C1=C[C@@H](OC(CC)CC)[C@H](NC(C)=O)[C@@H](N)C1` [Oseltamivir, oseltamivir]: in assay [1], the RT-PCR result is on record as “positive”; the ct value is 24 and 32 and 35. Also, in assay [2], the “fever settled, day of illness” value is 5 and the “outcome of close contacts given oseltamivir prophylaxis” value is listed as “remained well”.

(Values after patent publication US20120308993A1 (priority 2009, published 2012).)
